Test results: patent US8975398B2, “NAMPT inhibitors” (AbbVie Inc., priority 2012, dated 2015)

System: PC3 cells
Assay: NAMPT Cell Proliferation Assay (Cell Titer Glo; also performed in the presence of 0.3 mM nicotinamide mononucleotide)
Assay type: cell-based
Conditions: Homo sapiens, PC-3, 120 h, 5 days incubation, cell viability by Cell Titer Glo
Procedure, shortened: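 Viability read by Cell Titer Glo after 5-day compound treatment of PC3 cells, dose range 10 μM down to 1×10^−5 μM in 10-fold steps; a second run adds 0.3 mM nicotinamide mononucleotide. Sigmoidal dose-response fitting of percent inhibition gives IC50.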

| SMILES | IC50 [nM] |
| --- | --- |
| CC(C)C(=O)N1CCC(c2ccc(NC(=O)C3CN(c4cccnn4)C3)cc2F)CC1 [Example 880, N-{3-fluoro-4-[1-(2-methylpropanoyl)piperidin-4-yl]phenyl}-1-(pyridazin-3-yl)azetidine-3-carboxamide] | 15.4 |
| O=C(Nc1ccc(C2CCN(C(=O)c3ccccc3)CC2)c(F)c1)C1CN(c2cccnn2)C1 [Example 884, N-[4-(1-benzoylpiperidin-4-yl)-3-fluorophenyl]-1-(pyridazin-3-yl)azetidine-3-carboxamide] | 2.75 |
| O=C(Nc1ccc(C2CCN(C(=O)CCC(F)(F)F)CC2)c(F)c1)C1CN(c2cccnn2)C1 [Example 883, N-{3-fluoro-4-[1-(4,4,4-trifluorobutanoyl)piperidin-4-yl]phenyl}-1-(pyridazin-3-yl)azetidine-3-carboxamide] | 30.9 |
| O=C(Nc1ccc(CC2CCN(C(=O)c3ccn[nH]3)CC2)cc1)C1CN(c2cccnn2)C1 [Example 938, N-(4-{[1-(1H-pyrazol-5-ylcarbonyl)piperidin-4-yl]methyl}phenyl)-1-(pyridazin-3-yl)azetidine-3-carboxamide] | 8.75 |
| Cc1ccc(N2CC(C(=O)Nc3ccc(-c4cnn(CC5(C)CCN(C6COC6)CC5)c4)cc3)C2)nn1 [Example 905, N-[4-(1-{[4-methyl-1-(oxetan-3-yl)piperidin-4-yl]methyl}-1H-pyrazol-4-yl)phenyl]-1-(6-methylpyridazin-3-yl)azetidine-3-carboxamide] | 13.3 |
| O=C(NCC1CC1)c1ccc(NC(=O)C2CN(c3cccnn3)C2)cc1 [Example 995, N-{4-[(cyclopropylmethyl)carbamoyl]phenyl}-1-(pyridazin-3-yl)azetidine-3-carboxamide] | 245 |
| O=C(NCCC(F)(F)F)c1ccc(NC(=O)C2CN(c3cccnn3)C2)cc1 [Example 997, 1-(pyridazin-3-yl)-N-{4-[(3,3,3-trifluoropropyl)carbamoyl]phenyl}azetidine-3-carboxamide] | 93.5 |
| Cc1ccccc1C(=O)N1CCC(Cc2ccc(NC(=O)C3CN(c4cccnn4)C3)cc2)CC1 [Example 963, N-(4-{[1-(2-methylbenzoyl)piperidin-4-yl]methyl}phenyl)-1-(pyridazin-3-yl)azetidine-3-carboxamide] | 2.14 |
| O=C(NC1CCOCC1)c1ccc(NC(=O)C2CN(c3cccnn3)C2)cc1 [Example 1002, 1-(pyridazin-3-yl)-N-[4-(tetrahydro-2H-pyran-4-ylcarbamoyl)phenyl]azetidine-3-carboxamide] | 911 |
| O=C(Nc1ccc(C2(O)CCN(C(=O)c3ccccc3F)CC2)cc1)C1CN(c2cccnn2)C1 [Example 889, N-{4-[1-(2-fluorobenzoyl)-4-hydroxypiperidin-4-yl]phenyl}-1-(pyridazin-3-yl)azetidine-3-carboxamide] | 2.85 |
| O=C(Nc1cccc(F)c1)c1ccc(NC(=O)C2CN(c3cccnn3)C2)cc1 [Example 1007, N-{4-[(3-fluorophenyl)carbamoyl]phenyl}-1-(pyridazin-3-yl)azetidine-3-carboxamide] | 56.7 |
| CC(C)(C)CC(=O)N1CCC(c2ccc(NC(=O)C3CN(c4cccnn4)C3)cn2)CC1 [Example 920, N-{6-[1-(3,3-dimethylbutanoyl)piperidin-4-yl]pyridin-3-yl}-1-(pyridazin-3-yl)azetidine-3-carboxamide] | 5.43 |
| CC1(Cn2cc(-c3ccc(NC(=O)C4CN(c5cccnn5)C4)cc3)cn2)CCNCC1 [Example 873, N-(4-{1-[(4-methylpiperidin-4-yl)methyl]-1H-pyrazol-4-yl}phenyl)-1-(pyridazin-3-yl)azetidine-3-carboxamide] | 675 |
| Cc1ccc(C(=O)N2CCC(Cc3ccc(NC(=O)C4CN(c5cccnn5)C4)cc3)CC2)cn1 [Example 939, N-[4-({1-[(6-methylpyridin-3-yl)carbonyl]piperidin-4-yl}methyl)phenyl]-1-(pyridazin-3-yl)azetidine-3-carboxamide] | 2.96 |
